{
  "source": "patent US20230390214A1",
  "about": "“ADHESIVE PATCH” (TOYO INK SC HOLDINGS CO., LTD., priority 2020, published 2023)",
  "data": [
    {"assay": "Solubility of the drug in levulinic acid at 35° C. (visual observation)", "assay_type": "physicochemical", "conditions": "in 1 mL of levulinic acid at a liquid temperature of 35° C.", "experimental": "The adhesive layer includes a drug. A drug that can be dissolved in levulinic acid is preferable. For example, it is preferable that 0.1 g or more of the drug can be dissolved in 1 mL of levulinic acid at a liquid temperature of 35° C.\nSpecifically, the solubility of the drug is determined as follows. One mL of levulinic acid is put into a test tube and kept at 35° C. to obtain liquid levulinic acid. To the liquid levulinic acid, 0.1 g of the drug is added to obtain a mixed liquid. While keeping the mixed liquid at 35° C., the mixed liquid in the test tube is vibrated for 10 minutes using an ultrasonic cleaner (e.g., a glasses cleaner). After removing the test tube from the ultrasonic cleaner and leaving it in an environment of 35° C. for 4 hours, the mixed liquid in the test tube is visually observed to check for the presence of residues or precipitates of the drug. In a case where no drug residues or precipitates are observed in the mixed liquid, it is determined that 0.1 g or more of the drug can be dissolved in 1 mL of levulinic acid at a liquid temperature of 35° C. Furthermore, in a case where drug residues or precipitates are observed in the mixed liquid, it is determined that 0.1 g or more of the drug cannot be dissolved in 1 mL of levulinic acid at a liquid temperature of 35° C.", "units": {"Amount of drug that can be dissolved in 1 mL of levulinic acid": "g"}, "values": [
      {"smiles": "N=C(N)NC(=O)Cc1c(Cl)cccc1Cl", "note": "[guanfacine]", "Amount of drug that can be dissolved in 1 mL of levulinic acid": "≥ 0.1"},
      {"smiles": "CCCN(CCc1cccs1)[C@H]1CCc2c(O)cccc2C1", "note": "[rotigotine]", "Amount of drug that can be dissolved in 1 mL of levulinic acid": "≥ 0.1"},
      {"smiles": "CCN1CCN(c2cc(-c3ccc(F)cc3)c3c(n2)CCCCCC3)CC1", "note": "[blonanserin]", "Amount of drug that can be dissolved in 1 mL of levulinic acid": "≥ 0.1"}
    ]}
  ]
}
